SMILES strings stand for the structures.

For one assay, the target named is T1, MGL (Rattus norvegicus, UniProt Q8R431).
T1 construct: one g rat brain was homogenized using a Polytron homogenizer; from tissue; host or cells: rat brain homogenate
T1 sequence (Q8R431 1-303): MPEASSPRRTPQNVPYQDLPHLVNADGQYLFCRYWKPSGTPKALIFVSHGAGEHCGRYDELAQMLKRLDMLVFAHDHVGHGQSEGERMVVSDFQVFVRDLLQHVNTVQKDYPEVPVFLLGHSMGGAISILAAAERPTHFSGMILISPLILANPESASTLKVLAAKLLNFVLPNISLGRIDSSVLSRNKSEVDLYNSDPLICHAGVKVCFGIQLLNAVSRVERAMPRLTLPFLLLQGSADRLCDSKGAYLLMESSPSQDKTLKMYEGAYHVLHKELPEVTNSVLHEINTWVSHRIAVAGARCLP
Briefly: 2-AG accumulation assay in rat brain homogenate. The following applies: rat brain homogenate; compound 0.01 μM; 2-AG accumulation as percent of vehicle; read-out: Rat Brain 2AG % VehCntrl (%) @ 0.01 μM. It is filed as biochemical.
On to `O=C(c1ccccc1)N1CCN(C2CN(C(=O)c3ccc(-c4cccc(C(F)(F)F)c4)cc3)C2)CC1` [Cpd 186, 1-(Phenylcarbonyl)-4-(1-{[3′-(trifluoromethyl)biphenyl-4-yl]carbonyl}azetidin-3-yl)piperazine], for which the 2-AG accumulation, % of vehicle control at 0.01 µM came out at 123%.

Staying with this assay, now noted: rat brain homogenate; compound 0.1 μM; 2-AG accumulation as percent of vehicle; read-out: Rat Brain 2AG % VehCntrl (%) @ 0.1 μM.
As for `O=C(c1ccccc1)N1CCN(C2CN(C(=O)c3ccc(-c4cccc(C(F)(F)F)c4)cc3)C2)CC1` [Cpd 186, 1-(Phenylcarbonyl)-4-(1-{[3′-(trifluoromethyl)biphenyl-4-yl]carbonyl}azetidin-3-yl)piperazine], the 2-AG accumulation, % of vehicle control at 0.1 µM was found to be 199%.

The assay is the same for the next values; noted with them: rat brain homogenate; compound 1 μM; 2-AG accumulation as percent of vehicle; read-out: Rat Brain 2AG % VehCntrl (%) @ 1 μM.
In the case of `O=C(c1ccccc1)N1CCN(C2CN(C(=O)c3ccc(-c4ccc(C(F)(F)F)s4)cc3)C2)CC1` [Cpd 581, 1-(Phenylcarbonyl)-4-[1-({4-[5-(trifluoromethyl)thiophen-2-yl]phenyl}carbonyl)azetidin-3-yl]piperazine], the 2-AG accumulation, % of vehicle control at 1 µM amounted to 140%.

Regarding `O=C(c1ccc2nc(-c3cccc(C(F)(F)F)c3)oc2c1)N1CC(N2CCN(C(=O)c3cscn3)CC2)C1` [Cpd 1151, 6-({3-[4-(1,3-Thiazol-4-ylcarbonyl)piperazin-1-yl]azetidin-1-yl}carbonyl)-2-[3-(trifluoromethyl)phenyl]-1,3-benzoxazole], the 2-AG accumulation, % of vehicle control at 1 µM was found to be 482%.

With `O=C(c1ccc2c(c1)CCCN2C(=O)c1ccc(C(F)(F)F)cc1)N1CC(N2CCN(C(=O)c3nccs3)CC2)C1` [Cpd 365, 6-({3-[4-(1,3-Thiazol-2-ylcarbonyl)piperazin-1-yl]azetidin-1-yl}carbonyl)-1-(4-trifluoromethylbenzoyl)-1,2,3,4-tetrahydroquinoline], the 2-AG accumulation, % of vehicle control at 1 µM stood at 971%.

Regarding `O=C(c1ccc(C(F)(F)F)cc1)N1CCc2cc(C(=O)N3CC(N4CCN(C(=O)c5nccs5)CC4)C3)ccc2C1` [Cpd 907, 6-({3-[4-(1,3-Thiazol-2-ylcarbonyl)piperazin-1-yl]azetidin-1-yl}carbonyl)-2-{[4-(trifluoromethyl)phenyl]carbonyl}-1,2,3,4-tetrahydroisoquinoline], the 2-AG accumulation, % of vehicle control at 1 µM came out at 867%.

In the case of `O=C(c1ccc(Sc2cccc(C(F)(F)F)c2)cc1)N1CC(N2CCN(C(=O)c3nccs3)CC2)C1` [Cpd 431], the 2-AG accumulation, % of vehicle control at 1 µM was found to be 703%.

`O=C(c1ccccc1)N1CCN(C2CN(C(=O)c3sc4cc(C(F)(F)F)ccc4c3Cl)C2)CC1` [Cpd 336]: the 2-AG accumulation, % of vehicle control at 1 µM was 223%.

Regarding `O=C(c1ccc2c(c1)ncn2-c1ccc(F)c(F)c1)N1CC(N2CCN(C(=O)c3nccs3)CC2)C1` [Cpd 1186], the 2-AG accumulation, % of vehicle control at 1 µM stood at 393%.

Regarding `O=C(c1ccccc1)N1CCN(C2CN(C(=O)c3ccc(-c4cccc(C(F)(F)F)c4)cc3)C2)CC1` [Cpd 186, 1-(Phenylcarbonyl)-4-(1-{[3′-(trifluoromethyl)biphenyl-4-yl]carbonyl}azetidin-3-yl)piperazine], the 2-AG accumulation, % of vehicle control at 1 µM turned out to be 260%.

In the case of `O=C(c1cscn1)N1CCN(C2CN(C(=O)c3cc4c(C(F)(F)F)cccc4s3)C2)CC1` [Cpd 334, 1-(1,3-Thiazol-4-ylcarbonyl)-4-(1-{[4-(trifluoromethyl)-1-benzothiophen-2-yl]carbonyl}azetidin-3-yl)piperazine], the 2-AG accumulation, % of vehicle control at 1 µM worked out at 259%.

The assay is the same for the next values; noted with them: rat brain homogenate; compound 10 μM; 2-AG accumulation as percent of vehicle; read-out: Rat Brain 2AG % VehCntrl (%) @ 10 μM.
With `O=C(c1ccc(-c2cccs2)cc1)N1CC(N2CCN(C(=O)c3nccs3)CC2)C1` [Cpd 138, 1-(1,3-Thiazol-2-ylcarbonyl)-4-{1-[(4-thiophen-2-ylphenyl)carbonyl]azetidin-3-yl}piperazine], the 2-AG accumulation, % of vehicle control at 10 µM worked out at 661%.

For `Nc1cccc(-c2ccc(C(=O)N3CC(N4CCN(C(=O)c5nccs5)CC4)C3)cc2)c1` [Cpd 230, 4′-({3-[4-(1,3-Thiazol-2-ylcarbonyl)piperazin-1-yl]azetidin-1-yl}carbonyl)biphenyl-3-amine], the 2-AG accumulation, % of vehicle control at 10 µM stood at 567%.

With `Cc1ccc(F)cc1-c1ccc(C(=O)N2CC(N3CCN(C(=O)c4nccs4)CC3)C2)cc1` [Cpd 177, 1-{1-[(5′-Fluoro-2′-methylbiphenyl-4-yl)carbonyl]azetidin-3-yl}-4-(1,3-thiazol-2-ylcarbonyl)piperazine], the 2-AG accumulation, % of vehicle control at 10 µM was 768%.

Consider `O=C(c1ccc(-c2ccc(O)cc2)cc1)N1CC(N2CCN(C(=O)c3nccs3)CC2)C1` [Cpd 211, 4′-({3-[4-(1,3-Thiazol-2-ylcarbonyl)piperazin-1-yl]azetidin-1-yl}carbonyl)biphenyl-4-ol], for which the 2-AG accumulation, % of vehicle control at 10 µM worked out at 725%.

With `Cc1c(C(=O)N2CC(N3CCN(C(=O)c4ccccc4)CC3)C2)sc2ccc(Cl)cc12` [Cpd 120, 1-{1-[(5-Chloro-3-methyl-1-benzothiophen-2-yl)carbonyl]azetidin-3-yl}-4-(phenylcarbonyl)piperazine], the 2-AG accumulation, % of vehicle control at 10 µM came to 483%.

Consider `CN(C)S(=O)(=O)c1ccc(-c2ccc(C(=O)N3CC(N4CCN(C(=O)c5nccs5)CC4)C3)cc2)cc1` [Cpd 213, N,N-Dimethyl-4′-({3-[4-(1,3-thiazol-2-ylcarbonyl)piperazin-1-yl]azetidin-1-yl}carbonyl)biphenyl-4-sulfonamide], for which the 2-AG accumulation, % of vehicle control at 10 µM came to 104%.

Regarding `O=C(c1ccccc1)N1CCN(C2CN(C(=O)c3ccc(-c4ccc(C(F)(F)F)cc4)cc3)C2)CC1` [Cpd 75, 1-(Phenylcarbonyl)-4-(1-{[4′-(trifluoromethyl)biphenyl-4-yl]carbonyl}azetidin-3-yl)piperazine], the 2-AG accumulation, % of vehicle control at 10 µM stood at 193%.

For the compound `O=C(c1ccccc1)N1CCN(C2CN(C(=O)c3ccc(OCc4ccc5ccccc5c4)cc3)C2)CC1` [Cpd 380, 1-(1-{[4-(Naphthalen-2-ylmethoxy)phenyl]carbonyl}azetidin-3-yl)-4-(phenylcarbonyl)piperazine], the 2-AG accumulation, % of vehicle control at 10 µM amounted to 773%.

Take `O=C(c1ccccc1)N1CC(N2CCN(C(=O)c3ccc(-c4ccccc4)cc3)C(c3ccccc3)C2)C1` (stereo not shown) [Cpd 44, 1-(Biphenyl-4-ylcarbonyl)-2-phenyl-4-[1-(phenylcarbonyl)azetidin-3-yl]piperazine]: the 2-AG accumulation, % of vehicle control at 10 µM was determined as 238%.

`CC(C)Oc1cccc(-c2ccc(C(=O)N3CC(N4CCN(C(=O)c5ccccc5)CC4)C3)cc2)c1` [Cpd 188, 1-(1-{[3′-(1-Methylethoxy)biphenyl-4-yl]carbonyl}azetidin-3-yl)-4-(phenylcarbonyl)piperazine]: the 2-AG accumulation, % of vehicle control at 10 µM amounted to 506%.

In the case of `O=C(c1ccccc1)N1CCN(C2CN(C(=O)c3ccc(Cc4ccccc4)s3)C2)CC1` [Cpd 321, 1-{1-[(5-Benzylthiophen-2-yl)carbonyl]azetidin-3-yl}-4-(phenylcarbonyl)piperazine], the 2-AG accumulation, % of vehicle control at 10 µM is 230%.

For the compound `Cc1nc(-c2ccc(C(F)(F)F)cc2)sc1C(=O)N1CC(N2CCN(C(=O)c3nccs3)CC2)C1` [Cpd 136, 1-[1-({4-Methyl-2-[4-(trifluoromethyl)phenyl]-1,3-thiazol-5-yl}carbonyl)azetidin-3-yl]-4-(1,3-thiazol-2-ylcarbonyl)piperazine], the 2-AG accumulation, % of vehicle control at 10 µM stood at 612%.

In the case of `O=C(c1cccc(-c2cccs2)c1)N1CC(N2CCN(C(=O)c3nccs3)CC2)C1` [Cpd 137, 1-(1,3-Thiazol-2-ylcarbonyl)-4-{1-[(3-thiophen-2-ylphenyl)carbonyl]azetidin-3-yl}piperazine], the 2-AG accumulation, % of vehicle control at 10 µM is 441%.

Regarding `O=C(c1ccccc1)N1CCN(C2CN(C(=O)c3cc4ccc(-c5ccccc5)cc4s3)C2)CC1` [Cpd 342, 1-{1-[(6-Phenyl-1-benzothiophen-2-yl)carbonyl]azetidin-3-yl}-4-(phenylcarbonyl)piperazine], the 2-AG accumulation, % of vehicle control at 10 µM came to 288%.

For `O=C(/C=C/c1ccc(SC(F)(F)F)cc1)N1CC(N2CCN(C(=O)c3nccs3)CC2)C1` [Cpd 283], the 2-AG accumulation, % of vehicle control at 10 µM was determined as 605%.

Consider `O=C(c1ccc2c(Br)cccc2c1)N1CC(N2CCN(C(=O)c3nccs3)CC2)C1` [Cpd 313, 1-{1-[(5-Bromonaphthalen-2-yl)carbonyl]azetidin-3-yl}-4-(1,3-thiazol-2-ylcarbonyl)piperazine], for which the 2-AG accumulation, % of vehicle control at 10 µM worked out at 814%.

Regarding `O=C(c1ccc(-c2ccc(F)cc2F)cc1)N1CC(N2CCN(C(=O)c3nccs3)CC2)C1` [Cpd 179, 1-{1-[(2′,4′-Difluorobiphenyl-4-yl)carbonyl]azetidin-3-yl}-4-(1,3-thiazol-2-ylcarbonyl)piperazine], the 2-AG accumulation, % of vehicle control at 10 µM was 910%.

As to `O=C(c1ccc(-c2ccccc2C(F)(F)F)cc1)N1CC(N2CCN(C(=O)c3nccs3)CC2)C1` [Cpd 147, 1-(1,3-Thiazol-2-ylcarbonyl)-4-(1-{[2′-(trifluoromethyl)biphenyl-4-yl]carbonyl}azetidin-3-yl)piperazine], the 2-AG accumulation, % of vehicle control at 10 µM was found to be 676%.

For `Cc1nc(-c2cccs2)sc1C(=O)N1CC(N2CCN(C(=O)c3nccs3)CC2)C1` [Cpd 134, 1-{1-[(4-Methyl-2-thiophen-2-yl-1,3-thiazol-5-yl)carbonyl]azetidin-3-yl}-4-(1,3-thiazol-2-ylcarbonyl)piperazine], the 2-AG accumulation, % of vehicle control at 10 µM was found to be 582%.

Take `O=C(c1ccccc1)N1CCN(C2CN(C(=O)c3ccc(-c4cccc(C(F)(F)F)c4)cc3)C2)CC1` [Cpd 186, 1-(Phenylcarbonyl)-4-(1-{[3′-(trifluoromethyl)biphenyl-4-yl]carbonyl}azetidin-3-yl)piperazine]: the 2-AG accumulation, % of vehicle control at 10 µM came out at 521%.

Regarding `O=C(CCc1ccccc1Cl)N1CC(N2CCN(C(=O)c3nccs3)CC2)C1` [Cpd 273, 1-{1-[3-(2-Chlorophenyl)propanoyl]azetidin-3-yl}-4-(1,3-thiazol-2-ylcarbonyl)piperazine], the 2-AG accumulation, % of vehicle control at 10 µM amounted to 623%.

For `O=C(c1ccccc1)N1CCN(C2CN(C(=O)c3ccc(OC4CCCCC4)cc3)C2)CC1` [Cpd 435, 1-(1-{[4-(Cyclohexyloxy)phenyl]carbonyl}azetidin-3-yl)-4-(phenylcarbonyl)piperazine], the 2-AG accumulation, % of vehicle control at 10 µM stood at 198%.

Take `O=C(CCc1ccc(Cl)c(Cl)c1)N1CC(N2CCN(C(=O)c3nccs3)CC2)C1` [Cpd 281, 1-{1-[3-(3,4-Dichlorophenyl)propanoyl]azetidin-3-yl}-4-(1,3-thiazol-2-ylcarbonyl)piperazine]: the 2-AG accumulation, % of vehicle control at 10 µM was found to be 201%.

The values above are taken from patent publication US8362000B2, “Azetidinyl diamides as monoacylglycerol lipase inhibitors” (Janssen Pharmaceutica NV, priority 2009, dated 2013).
